# Patent US11793841B2, “Microbial compositions and methods for treating type 2 diabetes, obesity, and metabolic syndrome” (Solarea Bio, Inc., priority 2017, dated 2023)
# Tested on: diet induced obese (DIO) C57BL/6J mice
# Test: Oral glucose tolerance test (OGTT) in diet induced obese mice
# Format: in vivo
# Details: monotherapy; by 60 minutes
# Description: After 4 weeks of dosing mice with test article, an OGTT was performed. Here, mice were fasted for 6 hours after which fasting blood glucose levels were measured via tail vein blood using a glucometer (One-Touch Ultra II). Mice were then dosed with an oral glucose bolus (2 g/kg) via oral gavage, and blood glucose was measured at 20, 40, 60, and 120 minutes post gavage.
compound,measurement,value
CN(C)C(=N)N=C(N)N [metformin],blood glucose after glucose challenge,remained elevated
